The source of these data is paper PMC11137198 (Frontiers in Pharmacology, 2024).

Series [1] has as its system HAG. Set-up: species or system human. The following applies: binding constant within HAG, PBS. From the text: (§1) To calculate the K B values by means of UV absorption spectroscopy, the same Eq. 1 has been applied but using A instead of F.
Competing interactions on mixtures containing the drug and a metabolite in the presence of HAG confirmed the consistency of the determined binding constants.

Details of series [2]: method as in Tamarit et al., 2021; Tamarit et al., 2022. Particulars: cyclohexane, ref Tamarit et al., 2021, 2022; cited from earlier work.
The target of series [3] is T1, HAG (Homo sapiens, UniProt P02763).
T1 construct: α1-acid glycoprotein from human plasma (HAG) were purchased from Sigma-Aldrich; purchased Sigma-Aldrich; host or cells: human plasma
Type of series: physicochemical. Particulars: HAG-bound; for weight of τ1 component / weight of τ2 component / τ2 / τ1: two-exponential fit; for τ2: long component; for τ1: short component; for λmax (fluorescence): 1:1 (10 μM). Here is the method:
(§2) Steady-state fluorescence spectra were recorded on an Edinburgh FS5 spectrofluorometer, provided with a monochromator in the wavelength range of 200–900 nm using an excitation wavelength of 340 nm at room temperature. Measurements on drug@protein complexes were performed in aerated PBS of 1:1 M ratio mixtures at 10 µM. The absorbance of the samples at the excitation wavelength was kept below 0.1. The fluorescence quantum yields were determined using anthracene in ethanol as reference ([Montalti et al., 2006]).
(§3) Time-resolved fluorescence measurements were performed with an EasyLife X system containing a sample compartment composed of an automated peltier cuvette holder to control the temperature at 24°C, a pulsed LED excitation source and a lifetime detector. The employed LED excitation source was 340 nm, with emission filter of WG370. The fluorescence lifetimes (τF) were obtained upon fitting the decay traces by a non-linear fitting/deconvolution procedure F(t) = Σa i ·exp(-t/τ i ) by means of a one- or two-exponential function, depending on the investigated system. All spectroscopic measurements were done in 10 × 10 mm^2 quartz cuvettes at room temperature.
The insets show the normalized spectra. For ligand@protein complexes, solutions were at 1:1 M ratio (10 μM).

Another series relates to cellular milieu. Set-up: method as in El Ouardi et al., 2023. Particulars: UVA light, biological media; ref El Ouardi et al., 2023; cited from earlier work.
Series [4] has as its target T2, HSA (Homo sapiens, UniProt P02768).
T2 construct: purchased Sigma-Aldrich
Briefly: Steady-state and time-resolved fluorescence of ligand@HSA complexes. Type of series: physicochemical. The following applies: HSA-bound. The procedure: as §2, §3
FIGURE 2 (A) Fluorescence spectra for GFT-M2 in PBS (gray) and for GFT-M2@HSA (green). […] Measurements were performed at λexc = 340 nm in PBS; for ligand@HSA complexes, solutions were at 1:1 M ratio (10 μM).

Series [5] in a line: Fluorescence of free ligand in organic solvents or PBS. Type of series: physicochemical. The procedure:
as §2, §3
An important point to discuss is the low fluorescence yield value of GFT-M2 within the protein cavities (ϕF ∼ 0.01) compared with that obtained in cyclohexane (ϕF ∼ 0.13). […] It is worth to mention that this is a dynamic process that lowers τF values ([Tamarit et al., 2021]; [Tamarit et al., 2022]). With the aim of investigating this possibility for GFT-M2, fluorescence measurements were performed in the non-polar solvent toluene in the presence of increasing amounts of Tyr and Trp (due to solubility requirements, the N-acetyl methyl ester amino acid derivatives, namely, NAc-TyrMe or NAc-TrpMe, were used). […] It is worth to mention that using either Tyr or Trp as quenchers, a new band with λmax ∼ 490 nm arose at high amino acid concentrations (insets of Figure 3); this is attributed to emission from phenolate-like species involving interaction between hydrogen-bonded GFT-M2 and Tyr (or Trp) in the ground state. However, and as discussed above, these species have not been observed in the supramolecular GFT-M2@HSA complex, since LE states predominate. Therefore, it would exist an additional deactivation route for ^1GFT-M2* within the protein, which would be strongly affected by the conformational arrangement of the metabolite in the binding sites (see the discussion on MD simulations).

Series [6] has as its target T2, HSA. Briefly: Binding constant (K B) by modified Scatchard analysis from UV absorption and fluorescence. Particulars: binding constant within HSA, PBS. Here is the method: as §1
An additional point to address is the strength of interaction of the drug and its two metabolites within HSA, since it is key for their transport to the specific targets and for their toxicological activity. […] To this end, a modified Scatchard analysis was performed (Supplementary Figures S6–S8).

The subject of another series is HSA and HAG. The series is described as follows: Competing interactions in an equimolar mixture of the two proteins (fluorescence). The following applies: fluorescence emission, λexc = 340 nm. Type of series: binding, human.
In series [7] the target is T2, HSA. Particulars: HSA-bound, λexc = 340 nm, PBS; ref 36 (Tamarit et al., 2022); cited from earlier work.
Where [8] appears, read: λexc = 340 nm, PBS, 1:1 (10 μM).

Each structure is given as a SMILES string. “And” between values parts separate entries of the source, which are not always exact repeats. Equal entries are not always repeated. Where two headings read alike, the source gives them in different places. Marks after values point to notes of the source that are not given here.

T2 sequence (P02768 25-609): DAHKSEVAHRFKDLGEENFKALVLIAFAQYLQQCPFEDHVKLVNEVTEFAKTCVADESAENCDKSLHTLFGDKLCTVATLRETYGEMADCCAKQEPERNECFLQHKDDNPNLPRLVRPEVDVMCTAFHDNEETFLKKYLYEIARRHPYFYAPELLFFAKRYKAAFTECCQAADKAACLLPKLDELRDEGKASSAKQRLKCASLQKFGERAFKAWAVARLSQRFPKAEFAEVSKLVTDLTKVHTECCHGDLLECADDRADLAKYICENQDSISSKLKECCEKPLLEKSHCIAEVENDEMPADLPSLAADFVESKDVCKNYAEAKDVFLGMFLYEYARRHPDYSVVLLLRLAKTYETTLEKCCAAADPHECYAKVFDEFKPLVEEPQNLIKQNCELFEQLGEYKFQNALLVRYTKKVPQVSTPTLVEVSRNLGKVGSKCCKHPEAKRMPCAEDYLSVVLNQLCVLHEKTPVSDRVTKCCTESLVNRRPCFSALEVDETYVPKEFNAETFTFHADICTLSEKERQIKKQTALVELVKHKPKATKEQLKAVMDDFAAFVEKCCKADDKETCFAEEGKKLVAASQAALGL
T1 sequence (P02763 19-201): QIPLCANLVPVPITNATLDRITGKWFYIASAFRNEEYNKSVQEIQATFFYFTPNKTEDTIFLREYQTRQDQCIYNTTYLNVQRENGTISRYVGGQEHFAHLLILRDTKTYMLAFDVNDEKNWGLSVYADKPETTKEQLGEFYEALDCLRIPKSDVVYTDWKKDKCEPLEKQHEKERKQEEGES

Consider `COc1cc2ncnc(Nc3ccc(F)c(Cl)c3)c2cc1OCCCN1CCOCC1` [GFT, gefitinib, reference compound], for which, in the series on HAG [1], the “K B” value was 1.2 × 10^5 M^-1 and 1.2 ± 0.08 × 10^5 M^-1. Moreover, the ϕF in series [2] is around 0.19; on HAG [3] (λexc = 340 nm, PBS), 0.03. For the same compound, the τF on HAG [3] (λexc = 340 nm, PBS, one-exponential fit, or mean lifetime where marked d) stood at 0.8 ns.
As for `Oc1cc2ncnc(Nc3ccc(F)c(Cl)c3)c2cc1OCCCN1CCOCC1` [GFT-M2, O-desmethyl gefitinib], the “K B” value in the series on HAG [1] was 1.5 × 10^5 M^-1 and 1.5 ± 0.05 × 10^5 M^-1; at HSA [6], 1.8 ± 0.16 × 10^5 M^-1. In the series on cellular milieu, the phototoxicity entry is given as “much less phototoxic”. Moreover, the “weight of τ1 component” value at HSA [4] (two-exponential fit) worked out at 75%; on HAG [3] it was 35%. For the same compound, the “weight of τ2 component” value at HSA [4] (two-exponential fit) worked out at 25%; on HAG [3] it was 65%. The τ2 at HSA [4] (two-exponential fit, long component) is 4.9 ns; at HAG [3], 4.1 ns. The τ1 on HSA [4] (two-exponential fit, short component) is 0.6 ns; on HAG [3], 0.7 ns. Moreover, the “λmax (fluorescence)” value on HSA [4] (setting [8]) was around 388 nm; on HAG [3] (λexc = 340 nm, PBS) it was around 446 nm. Also, the ϕF is given as around 0.01 at HSA [4] (setting [8]); around 0.13 in series [5] (cyclohexane); 0.03 on HAG [3] (λexc = 340 nm, PBS). For the same compound, at HSA [4] (λexc = 340 nm, PBS, mean lifetime <τF> = a1τ1 + a2τ2), the τF was 1.0^d ns. Besides, the fluorescence maximum entry in [5] (free in the bulk solution (PBS), λexc = 340 nm) was “ca. 440 nm”. In addition, in [5] (non-polar solvents), the “fluorescence maximum λmax” value is recorded as “ca. 390 nm”. Also, the “λmax of new band at high amino acid concentrations” value in series [5] (toluene, Tyr or Trp as quenchers, phenolate-like species) is listed as around 490 nm. The “fluorescence lifetime of the LE singlet state” value in series [5] (toluene, with NAc-TyrMe or NAc-TrpMe at molar ratios 1:50 to 1:300) is on record as “ca. 2.42 ns”. Also, the “shoulder detected in the fluorescence spectrum” value on HAG [3] (λexc = 340 nm, PBS, value between brackets) is around 388 nm.
Take `COc1cc2ncnc(Nc3ccc(F)c(Cl)c3)c2cc1O` [GFT-M1, O-desmorpholinopropyl gefitinib]: in the series with HAG [1], the “K B” value is listed as 9.1 ± 0.32 × 10^4 M^-1. The phototoxicity entry with cellular milieu is listed as “highest phototoxicity”. Further, on HSA [6], the “K B” value is recorded as 1.2 ± 0.06 × 10^5 M^-1. Also, the “relative affinity in equimolar mixture of HSA and HAG” value in the series on HSA and HAG is on record as “higher affinity to HSA”. Further, at HSA [7], the τF is listed as 2.5 ^b ns and the ϕF is reported as 0.15 ^b. For the same compound, on HAG [3], the “weight of τ1 component” value was 28%, the “weight of τ2 component” value is on record as 72%, the τ2 is on record as around 3.1 ns and the τ1 is reported as around 0.5 ns. Also, at HAG [3] (λexc = 340 nm, PBS), the ϕF came out at 0.04 and the “λmax (fluorescence)” value is on record as around 442 nm.
